Reference: US7595345B2, “Vitamin D receptor modulators” (Eli Lilly and Company, priority 2003, dated 2009)
pEC50: −log10 of the molar value. Values joined by “and” are separate entries in the source; they are usually repeats but may differ in a detail not shown here. Identical values can stand only once.

Key:
[1] = Mouse hypercalcemia assay; assay type: in vivo; conditions: female DBF mice, oral gavage for 6 days, serum ionized calcium 6 hours after last dosing
Excerpt: 4. The Mouse Hypercalcemia Assay
(4) Materials and Method for the Mouse Hypercalcemia Assay: […]

[2] = molecular target: T1, RXR-VDR heterodimer (Gal4-RXR-DEF and VP16-VDR-LBD) (Homo sapiens, UniProt P11473); assay: RXR-VDR heterodimerization assay (SaOS-2 cells); assay type: cell-based; conditions: luciferase reporter pFR-LUC
T1 construct: Add the Gal4-RXR-DEF and VP16-VDR-LBD; expressed in transfected cells; host or cells: SaOs-2 cells
T1 sequence (P11473 127-423 limits assumed): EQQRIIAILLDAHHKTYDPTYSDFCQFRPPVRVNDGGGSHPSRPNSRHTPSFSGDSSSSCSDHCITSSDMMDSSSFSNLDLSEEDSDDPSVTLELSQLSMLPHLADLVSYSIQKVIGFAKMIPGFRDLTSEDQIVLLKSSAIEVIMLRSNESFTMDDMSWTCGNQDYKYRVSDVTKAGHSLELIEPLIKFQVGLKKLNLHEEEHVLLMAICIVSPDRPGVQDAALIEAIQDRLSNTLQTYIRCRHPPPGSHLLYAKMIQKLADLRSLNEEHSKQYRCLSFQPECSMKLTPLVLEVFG
T1 sequence (P19793 201-462 partner limits assumed): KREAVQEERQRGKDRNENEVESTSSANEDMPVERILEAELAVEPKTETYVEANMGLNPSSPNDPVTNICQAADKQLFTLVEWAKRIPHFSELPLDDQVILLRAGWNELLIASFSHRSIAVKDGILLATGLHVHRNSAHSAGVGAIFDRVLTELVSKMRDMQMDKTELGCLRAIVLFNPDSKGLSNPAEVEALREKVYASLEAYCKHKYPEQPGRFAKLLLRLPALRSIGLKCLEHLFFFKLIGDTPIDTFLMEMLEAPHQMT
Excerpt: 1. The RXR-VDR Heterodimer Assay:
This assay provides the VDR activity of a test compound.
This is an in vitro efficacy assay for psoriasis, abscess and adhesion. Psoriasis involves both keratinocytes and immune cells. IL-10 is a unique cytokine because it is anti-inflammatory and immunosuppressive. This assay tells us whether a VDRM is able to function as an agonist in PBMCs (primary blood mononuclear cells) or not. […] 7. Other Compound Assay Standards An alternative measure of the efficacy of compounds of the invention for treatment of osteoporosis is a numerical ratio calculated as follows: • Dose Threshold needed to induce hypercalcemia • divided by • Dose Threshold needed for bone efficacy An alternative measure of the efficacy of compounds of the invention for treatment of psoriasis is a numerical ratio calculated as follows: • Dose Threshold needed to induce hypercalcemia • divided by • Dose Threshold needed to induce keratinocyte proliferation For the above ratios, Dose Thresholds are determined from dose response curve data. 8. The CaT1 (Calcium Transport Protein 1) Assay The CaT1 Assay is an indicator for the undesirable condition of hypercalcemia. […] Preferred assay results are greater than 1000 nM. Details of the Assay Methods: (1) Materials and Method for RXR-VDR Heterodimerization Assay: Transfection Method:
Grow SaOs-2 cells in T-152 cm^2 culture flasks in growth media.
Keep the density at 5-6×10^5 cells/ml
Passage cells 1:3 twice a week
Resuspend cells in plating media and transfer into growth media.
Transfection/Treatment Media:
D-MEM Low Glucose Without Phenol Red only
T-152 cm^2 culture flask:
Use well plate to plate cells
Use Deep well plate sterile to make up treatment media.
Luciferase Assay Reagent:
Use Steady-Glo Luciferase Reagent from Promega (Cat #E2550) Consists of:
a. E2533 Assay Substrate, lyophilized product and
Aspirate media from culture flask, rinse cells with HBSS and aspirate.
Add trypsin and incubate. […]
Read the plates after drug treatment […]
Count each well using a Luminescence counter, Top Count NXT by Packard […]

Structure (SMILES)	Mouse Hypercal [1] [µg/kg/day]	pEC50 [2]
CCC(O)(CC)COc1ccc(C(CC)(CC)c2ccc(C(=O)NCC(=O)O)c(C)c2)cc1C [Ex. 3, (4-{1-ethyl-1-[4-(2-ethyl-2-hydroxy-butoxy)-3-methyl-phenyl]-propyl}-2-methyl-benzoylamino)-acetic acid]	1000	6.52 and 6.83
CCC(CC)(c1ccc(OCC(O)(C(C)C)C(C)C)c(C)c1)c1ccc(C(=O)NCC(=O)O)c(C)c1 [Ex. 4, (4-{1-Ethyl-1-[4-(2-hydroxy-2-isopropyl-3-methyl-butoxy)-3-methyl-phenyl]-propyl}-2-methyl-benzoylamino)-acetic acid]	73000	6.59 and 6.90
